We go through eight compounds from US12521393B2, “Cytotoxicity targeting chimeras for CCR2-expressing cells” (GLAXOSMITHKLINE INTELLECTUAL PROPERTY DEVELOPMENT LIMITED, priority 2021, dated 2026).

Assay [1] concerns endogenous target monocytes in human PBMC. Briefly: PBMC ex vivo monocyte depletion flow cytometry assay (Example 200). In kind it is cell-based. The following applies: with anti-cotinine antibody (SEQ ID NO: 11/12), 18-24 hours, EC50 in molar, read-out: Ex Vivo Depletion Assay pEC50 (converted). The method in brief:
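Monocyte depletion is reported as pEC50, averaged or given individually across runs, and read by flow cytometry staining CD45, CD14 and CD4 with a viability dye. Compounds, diluted four-fold over 11 points from 1 mM DMSO stocks, were combined with 30 μg/mL Fc-enhanced anti-cotinine antibody and human PBMC, then incubated 18-24 h at 37° C.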

Assay [2] addresses anti-cotinine antibody (SEQ ID NO: 11/12, rabbit variable region with human IgG1 Fc DE mutation). Briefly: SPR binding of anti-cotinine antibody to ARM compounds, Biacore T200, 37° C. (Example 202). The following applies: SPR Biacore T200, 37° C., pH 7.4, antibody SEQ ID NO: 11/12 captured on protein A; Kd in molar. How it is done: Anti-cotinine antibodies having a heavy chain sequence of SEQ ID NO: 11 and a light chain sequence of SEQ ID NO: 12 (rabbit variable region with human IgG1 Fc domain containing a DE mutation (S239D/1332E)) were captured on one or more flow cells of a protein A sensor chip (Cytiva) using a Biacore T200 while reserving flow cell 1 as a reference. Following capture, a 3000 second wait step was included to reduce drift during compound analysis. ARM compounds of Formula (I) were then injected at 100 μL/min with 200 and 2000 second association and dissociation times. The entire experiment was run at 37° C. with running buffer containing 10 mM HEPES pH 7.4, 150 mM NaCl, 0.005% P20 and 1% DMSO. ARM compounds of Formula (I) were titrated with a top concentration of 200 nM using a 3-fold 5-point dilution series and a corresponding 5-injection buffer cycle was run for blank subtraction. Data were double referenced by subtracting the response of the reference flow cell from that of the antibody-containing flow cell and subsequently subtracting the referenced blank sensorgrams. Following compound analysis, the surface was regenerated using a 30 second injection of pH 1.5 glycine at a flow rate of 30 μL/min after which antibody was re-captured. The experiment was run using Biacore T200 control software and evaluated using Biacore T200 Evaluation software. Curves were fit with a 1:1 kinetic binding model to obtain kon (1/Ms), koff(1/s), Kd (M) determined as koff/kon, and residence time determined as 1/koff (s).
Anti-cotinine antibody was tested for binding to ARMs compounds of Formula (I) of the invention in the above assay in or more experimental runs and the results are shown in Table 5 below. Affinity is reported as a pKd value. The pKd value is the negative log of the Kd value, wherein the Kd value is the dissociation constant measured in molar (M) as noted above. For compounds tested in more than one experimental run, the pKd value is reported as an average
Background: In SPR one partner is held on a chip, and binding of the other changes the refractive index at the surface.

Assay [3] relates to CCR2 expressing cells (CD11b+Ly6c+Hi) in peripheral blood. Briefly: In vivo depletion assay, flow cytometry of peripheral blood (Example 201). The following applies: hCCR2 knock-in mice, IV 0.1 mpk compound + 10 mpk anti-cotinine antibody (SEQ ID NO: 13/14), peripheral blood at 48 hr. Also on record: species or system human CCR2 knock-in mice (C57 background). The method in brief:
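Flow cytometry of blood collected at study termination quantified percent depletion of CD11b+Ly6c+Hi cells and CCR2 expression, using surface markers CD45, CD3, CD11b, Ly6C, human CCR2 after Fc block, with 7AAD viability stain. Compound given in saline:DMSO:PBS formulation, optionally combined with anti-cotinine antibody, incubated 30 min before administration.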

In assay [4] the target is human alpha1 nicotinic acetylcholine (nACh) receptor (Homo sapiens, UniProt P02708). Briefly: Nicotinic acetylcholine receptor antagonism assay, IONFlux automated patch clamp (Example 203). In kind it is cell-based. How it is done:
Cells expressing human alpha1 nicotinic acetylcholine (nACh) receptor (nAChR) were washed and dissociated using Trypsin containing buffer. Cells were then washed and seeded at a density of 3-5 million cells/mL and allowed to grow for 3 days. Then, 60-80 μL of cells were added to plates and incubated with dose response of an ARM compound of Formula (I) with a top concentration of either 10 μM or 100 μM. The receptor was then stimulated via addition of acetylcholine (ACh) and activation of the receptor was monitored via the IONFlux automated patch clamp system. IonFlux Data Analyzer software was utilized to perform leak subtraction and measure (min) peak current amplitude.
Data processing: (1) Current values recorded for vehicle only applications in individual traps/patterns were subtracted from corresponding current amplitude values for control, test article and control+test article. (2) Control response was calculated as % of the average response of the 3rd out of total 3 ACh (10 mM) applications alone. In rare situations, if the 3rd ACh response was obscured due to technical artifacts, the 2nd and/or 1st ACh (10 mM) application was considered as control. The peak current amplitude generated in the presence of each test article concentration was then used to calculate the % inhibition as compared to control response (10 mM ACh alone). These estimates were further corrected for vehicle response and run down corrected by normalizing with time matched control responses (10 mM ACh alone). The corrected percentages were then fit with a non-linear function in GraphPad Prism 6 (or later versions) to determine the IC50.
Exclusion criteria: (i) any n's with poor recording quality, (ii) control current amplitude <500 pA or (iii) significant outliers, as determined by the Grubbs test.
ARMs compounds of Formula (I) of the invention were tested for antagonism of the nAChR in the above assay in […] experimental runs and the results are shown in Table 7 below. Antagonistic activity of the compounds of Formula (I) of the invention is reported as an IC50 value (half maximal inhibitory concentration) and the maximum percentage antagonism observed at the highest concentration of compound of Formula (I) tested, as indicated in Table 7. For compounds tested in more than one experimental run, the IC50 value is reported as an average
In general terms: In patch-clamp work, channel activity is measured electrically.

By IC50 is commonly meant the concentration at which inhibition is half-maximal.

Structures can show the parent of a compound that is named as a salt.

Sequence of human alpha1 nicotinic acetylcholine (nACh) receptor (P02708 21-457): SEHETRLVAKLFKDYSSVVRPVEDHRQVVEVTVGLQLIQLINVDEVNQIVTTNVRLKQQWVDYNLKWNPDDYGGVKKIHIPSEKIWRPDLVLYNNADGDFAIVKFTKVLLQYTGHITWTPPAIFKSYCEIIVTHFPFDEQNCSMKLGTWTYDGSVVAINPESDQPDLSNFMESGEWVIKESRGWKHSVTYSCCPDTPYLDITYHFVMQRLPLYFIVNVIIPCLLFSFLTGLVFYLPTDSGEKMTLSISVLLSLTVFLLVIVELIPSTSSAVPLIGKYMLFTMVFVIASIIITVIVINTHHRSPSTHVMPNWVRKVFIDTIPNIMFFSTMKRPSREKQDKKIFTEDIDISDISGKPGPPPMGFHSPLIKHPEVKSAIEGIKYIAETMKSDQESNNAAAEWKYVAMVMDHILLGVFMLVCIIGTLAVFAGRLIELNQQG
Sequence of human alpha1 nicotinic acetylcholine (nACh) receptor (P11230 24-501 partner): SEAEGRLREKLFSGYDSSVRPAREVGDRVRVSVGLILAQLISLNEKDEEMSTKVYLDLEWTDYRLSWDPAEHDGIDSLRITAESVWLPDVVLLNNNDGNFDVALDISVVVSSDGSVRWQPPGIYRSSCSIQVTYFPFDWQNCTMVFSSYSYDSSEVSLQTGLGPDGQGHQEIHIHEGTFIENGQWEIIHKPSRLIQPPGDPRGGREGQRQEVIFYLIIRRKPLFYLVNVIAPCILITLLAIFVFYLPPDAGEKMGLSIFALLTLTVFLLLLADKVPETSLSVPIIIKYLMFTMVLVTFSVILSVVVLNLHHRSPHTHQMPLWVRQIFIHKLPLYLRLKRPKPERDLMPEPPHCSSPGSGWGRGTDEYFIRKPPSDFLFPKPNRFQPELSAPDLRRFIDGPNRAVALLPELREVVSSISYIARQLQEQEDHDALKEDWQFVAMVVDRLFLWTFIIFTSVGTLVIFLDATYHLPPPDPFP
Sequence of human alpha1 nicotinic acetylcholine (nACh) receptor (Q07001 22-517 partner): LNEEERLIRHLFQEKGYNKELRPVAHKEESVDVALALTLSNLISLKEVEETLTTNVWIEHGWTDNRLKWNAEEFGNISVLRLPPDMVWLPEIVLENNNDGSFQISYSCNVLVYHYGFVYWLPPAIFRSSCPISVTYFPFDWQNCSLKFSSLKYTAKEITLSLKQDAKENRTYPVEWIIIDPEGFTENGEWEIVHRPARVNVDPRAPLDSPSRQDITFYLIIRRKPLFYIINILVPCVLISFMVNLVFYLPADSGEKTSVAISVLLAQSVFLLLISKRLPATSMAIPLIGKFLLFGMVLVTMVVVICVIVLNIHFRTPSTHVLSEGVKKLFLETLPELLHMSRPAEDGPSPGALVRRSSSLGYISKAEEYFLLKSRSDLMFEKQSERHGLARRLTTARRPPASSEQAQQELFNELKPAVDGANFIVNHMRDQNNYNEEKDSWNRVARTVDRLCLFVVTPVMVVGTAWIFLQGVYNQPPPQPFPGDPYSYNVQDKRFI

Take `CC(C)N(C)[C@@H]1CC[C@H](N2CC[C@H](Nc3ncnc4ccc(C(F)(F)F)cc34)C2=O)[C@H](NC(=O)C2CCN(C(=O)CCOCCOCCOCCNC(=O)[C@H]3CC(=O)N(C)[C@@H]3c3cccnc3)CC2)C1` [Example 29, N-((1R,2S,5R)-5-(Isopropyl(methyl)amino)-2-((S)-2-oxo-3-((6-(trifluoromethyl)quinazolin-4-yl)amino)pyrrolidin-1-yl)cyclohexyl)-1-(1-((2S,3S)-1-methyl-5-oxo-2-(pyridin-3-yl)pyrrolidin-3-yl)-1-oxo-5,8,11-trioxa-2-azatetradecan-14-oyl)piperidine-4-carboxamide]: in assay [1], the EC50 was 2.51 nM. The “pKd of Antibody for ARM Compound of Formula (I)” value (“pKd of Antibody” below) in assay [2] came out at 9.3345.

With `CC(C)N(C)[C@@H]1CCC(N2CC[C@H](Nc3ncnc4ccc(C(F)(F)F)cc34)C2=O)[C@H](NC(=O)CCOCCOCCOCCOCCOCCOCCOCCOCCNC(=O)[C@H]2CC(=O)N(C)[C@@H]2c2cccnc2)C1` (stereo partly drawn) [Example 42, (2S,3S)-N-(27-(((1R,2S,5R)-5-(isopropyl(methyl)amino)-2-((S)-2-oxo-3-((6-(trifluoromethyl)quinazolin-4-yl)amino)pyrrolidin-1-yl)cyclohexyl)amino)-27-oxo-3,6,9,12,15,18,21,24-octaoxaheptacosyl)-1-methyl-5-oxo-2-(pyriidn-3-yl)pyrrolidine-3-carboxamide], the EC50 in assay [1] is 3.16 nM. In addition, the “pKd of Antibody” value in assay [2] stood at 9.23.

Turning to `CC(C)N(C)[C@@H]1CC[C@H](N2CC[C@H](Nc3ncnc4ccc(C(F)(F)F)cc34)C2=O)[C@H](NC(=O)COCCNC(=O)CCOCCOCCNC(=O)CCNC(=O)[C@H]2CC(=O)N(C)[C@@H]2c2cccnc2)C1` [Example 50, (2S,3S)-N-(1-(((1R,2S,5R)-5-(Isopropyl(methyl)amino)-2-((S)-2-oxo-3-((6-(trifluromethyl)quinazolin-4-yl)amino)pyrrolidin-1-yl)cyclohexyl)amino)-1,7,17-trioxo-3,10,13-trioxa-6,16-diazanonadecan-19-yl)-1-methyl-5-oxo-2-(pyridin-3-yl)pyrrolidine-3-carboxamide], the EC50 in assay [1] is 0.126 nM. The “pKd of Antibody” value in assay [2] is on record as 9.1485.

`CC(C)N(C)[C@@H]1CC[C@H](N2CC[C@H](Nc3ncnc4ccc(C(F)(F)F)cc34)C2=O)[C@H](NC(=O)[C@H]2C[C@H](NC(=O)CCOC[C@H]3CC[C@H](COCCNC(=O)[C@H]4CC(=O)N(C)[C@@H]4c4cccnc4)CC3)C2)C1` [Example 54, (2S,3S)-N-(2-(((1R,4S)-4-((3-(((1R,3R)-3-(((1R,2S,5R)-5-(Isopropyl(methyl)amino)-2-((S)-2-oxo-3-((6-(trifluoromethyl)quinazolin-4-yl)amino)pyrrolidin-1-yl)cyclohexyl)carbamoyl)cyclobutyl)amino)-3-oxopropoxy)methyl)cyclohexyl)methoxy)ethyl)-1-methyl-5-oxo-2-(pyridin-3-yl)pyrrolidine-3-carboxamide]: the EC50 in assay [1] was 1 nM. Further, the “pKd of Antibody” value in assay [2] was determined as 9.5515.

In the case of `CN1C(=O)C[C@H](C(=O)NCC(=O)NCCOCCOCCC(=O)N[C@H]2CC[C@@H](C(=O)N[C@@H]3C[C@H](NC(C)(C)C)CC[C@@H]3N3CC[C@H](Nc4ncnc5ccc(C(F)(F)F)cc45)C3=O)CC2)[C@H]1c1cccnc1` [Example 65, (2S,3S)-N-(2-((2-(2-(3-(((1S,4s)-4-(((1R,2S,5R)-5-(tert-Butylamino)-2-((S)-2-oxo-3-((6-(trifluoromethyl)quinazolin-4-yl)amino)pyrrolidin-1-yl)cyclohexyl)carbamoyl)cyclohexyl)amino)-3-oxopropoxy)ethoxy)ethyl)amino)-2-oxoethyl)-1-methyl-5-oxo-2-(pyridin-3-yl)pyrrolidine-3-carboxamide], in assay [1], the EC50 was 100000 nM. Moreover, the “pKd of Antibody” value in assay [2] was 8.648.

Consider `CC(C)N(C)[C@@H]1CC[C@H](N2CC[C@H](Nc3ncnc4ccc(C(F)(F)F)cc34)C2=O)[C@H](NC(=O)[C@H]2C[C@@H](NC(=O)CCOCCOCCNC(=O)CNC(=O)[C@H]3CC(=O)N(C)[C@@H]3c3cccnc3)C2)C1` [Example 66, (2S,3S)-N-(2-((2-(2-(3-(((1S,3s)-3-(((1R,2S,5R)-5-(Isopropyl(methyl)amino)-2-((S)-2-oxo-3-((6-(trifluoromethyl)quinazolin-4-yl)amino)pyrrolidin-1-yl)cyclohexyl)carbamoyl)cyclobutyl)amino)-3-oxopropoxy)ethoxy)ethyl)amino)-2-oxoethyl)-1-methyl-5-oxo-2-(pyridin-3-yl)pyrrolidine-3-carboxamide], for which the EC50 in assay [1] is 0.631 nM. Further, in assay [2], the “pKd of Antibody” value is 8.649.

Turning to `CC(C)N(C)[C@@H]1CC[C@H](N2CC[C@H](Nc3ncnc4ccc(C(F)(F)F)cc34)C2=O)[C@H](NC(=O)[C@H]2CC[C@@H](NC(=O)COCCOCCNC(=O)CNC(=O)[C@H]3CC(=O)N(C)[C@@H]3c3cccnc3)CC2)C1` [Example 171, (2S,3S)-N-(2-((2-(2-(2-(((1S,4s)-4-(((1R,2S,5R)-5-(Isopropyl(methyl)amino)-2-((S)-2-oxo-3-((6-(trifluoromethyl)quinazolin-4-yl)amino)pyrrolidin-1-yl)cyclohexyl)carbamoyl)cyclohexyl)amino)-2-oxoethoxy)ethoxy)ethyl)amino)-2-oxoethyl)-1-methyl-5-oxo-2-(pyridin-3-yl)pyrrolidine-3-carboxamide], in assay [2], the “pKd of Antibody” value turned out to be 8.7865.

As to `CC(C)N(C)[C@@H]1CC[C@H](N2CC[C@H](Nc3ncnc4ccc(C(F)(F)F)cc34)C2=O)[C@H](NC(=O)CCOCCN2CCC3(CCC(C(=O)NCCNC(=O)[C@H]4CC(=O)N(C)[C@@H]4c4cccnc4)CC3)CC2)C1` [Example 184, 3-(2-(3-(((1R,2S,5R)-5-(isopropyl(methyl)amino)-2-((S)-2-oxo-3-((6-(trifluoromethyl)quinazolin-4-yl)amino)450yridine450ne-1-yl)cyclohexyl)amino)-3-oxopropoxy)ethyl)-N-(2-((2S,3S)-1-methyl-5-oxo-2-(450yridine-3-yl)pyrrolidine-3-carboxamido)ethyl)-3-azaspiro[5.5]undecane-9-carboxamide, 3Formic acid salt], in assay [3], the “% Depletion of CCR2 expressing cells” value was 85.99%. Also, half-maximal inhibition in assay [4] (antagonism of ACh-stimulated human alpha1 nAChR current, patch clamp) (IC50) required 6390 nM. For the same compound, the Emax at 10 µM in assay [4] (maximum percentage antagonism at maximum concentration tested 10 μM, read-out: Maximum Response) amounted to 69.2%. The EC50 in assay [1] was 0.251 nM.
